# Measured values from US20040029891A1, “Use of PDE5 inhibitors in the treatment of polycystic ovary syndrome” (Pfizer Inc., priority 2002, published 2004).
# Experiments:
# [1] = system: cattle; test: Uterine horn histology (endometrial epithelial thickness) in cattle; assay type: in vivo; conditions: intra-vaginally twice daily, 30 days, relative to control animals (FIG. 4)
# Description: Oestrous was synchronised using two intramuscular injections of PGF2a (Lutalyse™) administered 11 days apart.
# The pyrazolopyrimidinone PDE V inhibitor was administered intra-vaginally twice daily from day −3 of oestrus until day 6 of the following oestrus (30 days in total). Blood samples were collected daily, plasma was prepared as soon as possible and stored at −20° C. and then analysed for progesterone.
# At the completion of the study (ie day 6 of the second oestrous period) the cattle were euthanised and the reproductive tract collected. A cross section of the left and right horns of each uterus was collected and stored in 10% Formalin and ten analysed histologically.
# [2] = system: ob/ob mice; test: Plasma triglycerides in ob/ob mice, 5 day dosing; assay type: in vivo, mouse; conditions: summary in words
# Description: (§1) The selective pyrazolopyrimidinone PDEV inhibitor compounds to be tested were solubilized in 10% DMSO/0.1% pluronics and dosed via oral gavage using mouse oral feeding needles (20 gauge, Popper & Sons, Inc., New Hyde Park, N.Y.). A volume of 4 ml/kg weight was administered for each dose. Compounds were tested at doses ranging from 1-50 mg/kg. Alternatively, the test selective pyrazopyrimidinone PDEV inhibitor compound was administered in the drinking water and found to produce similar reductions in plasma glucose and triglycerides to the reductions observed for the same compound when administered by oral gavage. […]
# (§2) Mice were allowed to acclimate to the Pfizer animal facilities for 1 week prior to the start of the study. On day one, retro-orbital blood samples were obtained and plasma glucose was determined as described hereinafter. […] Body weight was measured on days 1 and 5 of the study, and food consumption was assessed over the 5 day period.
# (§3) On the morning of the last day of the study mice were dosed with test pyrazolopyrimidinone PDEV compound or vehicle at approximately 8:00 am. […] Plasma samples were stored at −80° C. until analyzed.
# (§4) Plasma glucose and triglycerides were measured using the Alcyon Clinical Chemistry Analyzer (Abbott Laboratories, Abbott Park, Ill.) using kits supplied by Abbott. […]
# [3] = system: ob/ob mice; test: Plasma glucose in ob/ob mice, 5 day dosing; assay type: in vivo, mouse; conditions: summary in words
# Description: as §1, §2, §3, §4
SMILES,endometrial epithelial thickness [1],serum triglyceride levels [2],plasma glucose levels [3]
"CCCOc1ccc(S(=O)(=O)N2CCN(CC)CC2)cc1-c1nc2c(CC)n(Cc3ccccn3)nc2c(=O)[nH]1 [PDE5 A, 3-ethyl-5-[5-(4-ethylpiperazin-1-ylsulphonyl)-2-n-propoxyphenyl]-2-(pyridin-2-yl)methyl-2,6-dihydro-7H-pyrazolo[4,3-d]pyrimidin-7-one]",increases endometrial epithelial thickness,–,–
"CCCc1nn(C)c2c(=O)[nH]c(-c3cc(S(=O)(=O)N4CCN(C)CC4)ccc3OCC)nc12 [PDE5 C, 5-[2-ethoxy-5-(4-methyl-1-piperazinylsulphonyl)phenyl]-1-methyl-3-n-propyl-1,6-dihydro-7H-pyrazolo[4,3-d]pyrimidin-7-one]",–,reduce,reduce
